These results are taken from article PMC3142248, “The asthma candidate gene NPSR1 mediates isoform specific downstream signalling” (BMC Pulmonary Medicine, 2011).

Test [1] has as its target T1, NPSR1-B (Homo sapiens, UniProt Q6W5P4, N107I).
T1 construct: expressed in transfected cells; host or cells: HEK-293, transient transfection with pCMV-NPSR1-B
T1 sequence (Q6W5P4 1-377 isoform Q6W5P4-4 N107I): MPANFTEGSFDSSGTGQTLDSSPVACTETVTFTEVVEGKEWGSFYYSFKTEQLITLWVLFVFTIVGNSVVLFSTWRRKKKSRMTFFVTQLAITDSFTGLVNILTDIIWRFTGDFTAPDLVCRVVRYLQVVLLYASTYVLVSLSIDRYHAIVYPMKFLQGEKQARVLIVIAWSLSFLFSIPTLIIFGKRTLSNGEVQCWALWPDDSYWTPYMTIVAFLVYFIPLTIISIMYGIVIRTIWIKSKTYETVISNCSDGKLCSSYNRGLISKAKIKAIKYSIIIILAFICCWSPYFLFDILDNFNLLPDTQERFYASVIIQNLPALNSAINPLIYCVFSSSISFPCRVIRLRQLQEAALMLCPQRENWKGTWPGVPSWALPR
As to the kind of experiment: NPS concentration-response, mRNA expression by qRT-PCR, HEK-293 NPSR1-B. The format is cell-based. The conditions noted are these: 0.001-10 μM NPS, 6 h, Hill fit, mean ± SEM. On the procedure:
(§1) Human embryonic kidney cells (HEK-293) were cultured in MEM+GlutaMAX-1 medium (Gibco/Invitrogen) supplemented with 10% fetal calf serum (FCS) (Biosera), 1% sodium pyruvate, 1% non-essential amino acids and 1% penicillin/streptomycin (Gibco/Invitrogen). Human epithelial lung carcinoma cells (A549) were cultured in F-12/D-MEM medium (1:1; Gibco/Invitrogen) supplemented with 10% FCS, L-glutamine and 1% penicillin/streptomycin. Human neuroblastoma cells (SH-SY5Y) were cultured in MEM + GlutaMAX-1 medium supplemented with 10% FCS and 1% penicillin/streptomycin. All cells were kept at 37°C in a humified 5% CO2 incubator. The cells were transiently transfected (Lipofectamin™2000 Reagent, Invitrogen, Carlsbad, USA) with equal amounts of pCMV-NPSR1-A,- NPSR1-B (construction of the expression vectors has been described earlier) or an empty pCMV vector control in a ratio of 1:2 (DNA:Lipofectamin). 24 h post transfection cells were stimulated with NPS ([…]) (Sigma-Genosys LTD, Haverhill, UK or New England Peptide™, Gardner, MA, USA).
(§2) Total cellular RNA was isolated with the RNAeasy Mini Kit (Qiagen, Hilden, Germany) and reverse transcription was done using the iScript™ cDNA synthesis kit (Bio-Rad Laboratories, Hercules, CA, USA) or SuperScript™ First-Strand Synthesis System (Invitrogen, Carlsbad, USA) according to the manufacturer's protocol. All experiments were performed in biological duplicates or triplicates. qRT-PCR was performed using Fast SYBR® Green technology with hypoxanthine-guanine phosphoribosyl transferase (HPRT) or glyceraldehyde-3-phosphate dehydrogenase (GAPDH) as endogenous controls. Gene-specific primers were designed using Primer3 software (for complete lists of all primer sequences please see Additional file 1, Table S1). The PCR assays were performed in a total volume of 10 μl, containing 2 ul cDNA template, 5 ul Fast SYBR® Green PCR Master Mix (Applied Biosystems, Foster City, CA, USA) and 100 nM of each primer. A 7500 Fast Real-Time PCR system (Applied Biosystems) was used according to manufacturer's instructions. A dissociation stage was added to confirm primer specificity. All assays were carried out in technical duplicates or triplicates. Relative quantification and calculation of the range of confidence was performed with the comparative ΔΔCT method. Results are shown as relative expression compared to NPS stimulated empty vector control cells with error bars illustrating the standard error of the mean (SEM). The levels of total NPSR1 mRNA and isoform specific NPSR1-A and NPSR1-B mRNA were measured with qRT-PCR to control for equal isoform expression levels prior to any experiment on all transiently transfected cells (representative data shown Figure 2b).
(§3) To refine concentration and time dependency transiently NPSR1-A, -B or empty pCMV vector overexpressing cells were treated either with 0.001, 0.01, 0.1, 1 or 10 μM NPS for 6 h (concentration-response) or with 2 μM NPS for 30 min, 1, 2, 4, 6, 12, 24 or 48 h (time-response). To verify the results in other cell types, A549 and SH-SY5Y transiently overexpressing NPSR1-A, -B or an empty pCMV vector were treated with 2 μM NPS for 6 h. mRNA expression was measured with qRT-PCR. Agonist concentration-effect curve data were fitted to the Hill equation using an iterative, least squares method (GraphPad Prism, San Diego, CA, U.S.A), to provide estimate EC50 (the agonist concentration that induces half-maximum effect) and presented as -log10 (pEC50) which is normally distributed.

Test [2] addresses T2, NPSR1-A (Homo sapiens, UniProt Q6W5P4, N107I).
T2 construct: expressed in transfected cells; host or cells: HEK-293, transient transfection with pCMV-NPSR1-A
T2 sequence (Q6W5P4 1-371 N107I): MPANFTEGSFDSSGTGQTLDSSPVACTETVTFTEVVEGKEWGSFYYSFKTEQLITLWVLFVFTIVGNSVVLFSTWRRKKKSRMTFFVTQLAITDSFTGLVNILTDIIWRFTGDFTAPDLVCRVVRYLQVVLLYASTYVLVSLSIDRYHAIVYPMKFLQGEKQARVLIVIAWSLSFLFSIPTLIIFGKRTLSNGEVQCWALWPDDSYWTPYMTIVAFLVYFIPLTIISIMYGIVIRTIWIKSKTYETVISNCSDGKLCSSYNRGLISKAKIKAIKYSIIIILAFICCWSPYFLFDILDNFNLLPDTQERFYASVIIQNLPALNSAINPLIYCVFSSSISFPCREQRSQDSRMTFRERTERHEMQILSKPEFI
Nature of the test: cAMP accumulation (EIA), HEK-293 NPSR1-A. The format is cell-based. The conditions noted are these: 0.001-10 μM NPS, 20 min, 200 μM 3-isobutyl-1-methylxanthine 40 min before, six replicas, mean ± SEM. The procedure: (§4) Human embryonic kidney cells (HEK-293) were cultured in MEM+GlutaMAX-1 medium (Gibco/Invitrogen) supplemented with 10% fetal calf serum (FCS) (Biosera), 1% sodium pyruvate, 1% non-essential amino acids and 1% penicillin/streptomycin (Gibco/Invitrogen). Human epithelial lung carcinoma cells (A549) were cultured in F-12/D-MEM medium (1:1; Gibco/Invitrogen) supplemented with 10% FCS, L-glutamine and 1% penicillin/streptomycin. Human neuroblastoma cells (SH-SY5Y) were cultured in MEM + GlutaMAX-1 medium supplemented with 10% FCS and 1% penicillin/streptomycin. All cells were kept at 37°C in a humified 5% CO2 incubator. The cells were transiently transfected (Lipofectamin™2000 Reagent, Invitrogen, Carlsbad, USA) with equal amounts of pCMV-NPSR1-A,- NPSR1-B (construction of the expression vectors has been described earlier) or an empty pCMV vector control in a ratio of 1:2 (DNA:Lipofectamin). […]
(§5) To assay cAMP accumulation, transiently NPSR1-A or -B overexpressing HEK-293 cells were 24 h after transfection incubated for 40 min with 200 μM 3-isobutyl-1-methylxanthine (Sigma-Aldrich, St. Louis, MO, USA), a nonspecific inhibitor of phosphodiesterases. […] The fluorescence intensity was measured before and after injection of 1 μM NPS using the Fluostar Optima microplate reader (BMG Labtechnologies, Offenburg, Germany).
On the technique in general: cAMP levels reflect the balance of adenylyl cyclase and phosphodiesterase activity.

The target in test [3] is T1, NPSR1-B. As to the kind of experiment: cAMP accumulation (EIA), HEK-293 NPSR1-B. The format is cell-based. The note with it: 0.001-10 μM NPS, 20 min, 200 μM 3-isobutyl-1-methylxanthine 40 min before, six replicas, mean ± SEM. The procedure:
as §4, §5

The target in test [4] is T2, NPSR1-A. As to the kind of experiment: NPS concentration-response, mRNA expression by qRT-PCR, HEK-293 NPSR1-A. The note with it: 0.001-10 μM NPS, 6 h, Hill fit, mean ± SEM. The format is cell-based. The procedure:
as §1, §2, §3
(In general: In qPCR the cycle at which signal appears reflects the starting amount.)

In another test the test system is monocytic cell lines. The conditions noted are these: pro-inflammatory stimuli, ref [10]; cited from earlier work. From the text:
The increasing number of positive association studies supports the concept that NPSR1 is mechanistically involved in asthma and allergy, and also in other diseases. It is therefore highly important to understand its functions in more detail. […] Furthermore, we have observed that out ...

Setting [5] is: read-out: pEC50, AREG mRNA (converted).
Where [6] appears, read: read-out: pEC50, CGA mRNA (converted).
[7] abbreviates: read-out: pEC50, NR4A2 mRNA (converted).
[8] abbreviates: read-out: pEC50, PCK1 mRNA (converted).

No end group written: not given here.

Consider “SFRNGVGTGMKKTSFQRAKS [NPS, neuropeptide S]”, for which the EC50 on NPSR1-B [1] (setting [5]) was 170 nM; at NPSR1-B [1] (read-out: pEC50, CCL20 mRNA (converted)), 100 nM; at NPSR1-B [1] (setting [6]) it was 100 nM; at NPSR1-B [1] (setting [7]) it was 83.2 nM; at NPSR1-B [1] (setting [8]), 89.1 nM; at NPSR1-B [1] (read-out: pEC50, SERPINB2 mRNA (converted)), 126 nM. Besides, the EC50 at NPSR1-A [2] is 4.47 nM; on NPSR1-B [3] it was 3.89 nM; on NPSR1-A [4] (setting [5]) it was 234 nM; at NPSR1-A [4] (setting [6]), 45.7 nM; on NPSR1-A [4] (read-out: pEC50, EGR1 mRNA (converted)), 72.4 nM; on NPSR1-A [4] (read-out: pEC50, FOS mRNA (converted)) it was 53.7 nM. For the same molecule, the EC50 on NPSR1-A [4] (read-out: pEC50, IL8 mRNA (converted)) was 44.7 nM; on NPSR1-A [4] (setting [7]) it was 7.94 nM; at NPSR1-A [4] (read-out: pEC50, NTS mRNA (converted)) it was 87.1 nM; on NPSR1-A [4] (setting [8]) it was 162 nM.

TNFα: in the test on monocytic cell lines, the “NPSR1 mRNA levels” value is “generated elevated NPSR1 mRNA levels”.

B1: IFNγ: pro-inflammatory stimulus (protein, UniProt P01579 24-161, looked up)
Interferon gamma: QDPYVKEAENLKKYFNAGHSDVADNGTLFLGILKNWKEESDRKIMQSQIVSFYFKLFKNFKDDQSIQKSVETIKEDMNVKFFNSNKKKRDDFEKLTNYSVTDLNVQRKAIHELIQVMAELSPAAKTGKRKRSQMLFRG
As for B1, the “NPSR1 mRNA levels” value with monocytic cell lines was “generated elevated NPSR1 mRNA levels”.
